Patent publication US8697888B2, “Substituted (1-(methylsulfonyl)azetidin-3-yl)(heterocycloalkyl)methanone analogs as antagonists of muscarinic acetylcholine M1 receptors” (Vanderbilt University, priority 2012, dated 2014)

Biological target: T1, mAChR M1 (UniProt P11229)
T1 sequence (P11229 1-460): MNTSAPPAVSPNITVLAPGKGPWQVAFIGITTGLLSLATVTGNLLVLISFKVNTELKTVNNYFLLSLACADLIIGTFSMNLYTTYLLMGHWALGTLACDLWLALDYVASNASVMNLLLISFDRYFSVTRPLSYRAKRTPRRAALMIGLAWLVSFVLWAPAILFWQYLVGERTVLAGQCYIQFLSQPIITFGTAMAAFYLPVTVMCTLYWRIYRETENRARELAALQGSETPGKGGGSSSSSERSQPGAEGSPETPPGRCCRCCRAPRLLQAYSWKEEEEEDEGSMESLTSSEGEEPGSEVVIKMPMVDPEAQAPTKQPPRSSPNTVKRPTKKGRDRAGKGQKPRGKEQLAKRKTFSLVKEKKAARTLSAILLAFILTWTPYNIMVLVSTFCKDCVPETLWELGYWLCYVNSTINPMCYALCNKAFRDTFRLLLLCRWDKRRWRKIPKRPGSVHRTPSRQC
Assay: mAChR M1 cell-based functional assay (calcium mobilization, antagonist mode)
Conditions: for IC50: concentration of antagonist decreasing calcium flux by 50%, EC80 acetylcholine response, CHO-K1 cells expressing mAChR M1, read-out: Potency (IC50)
Excerpt: Chinese hamster ovary (CHO-K1) cells stably expressing rat (r)M1 were purchased from the American Type Culture Collection and cultured according to their indicated protocol. CHO cells stably expressing human (h)M2, hM3, and hM5 were described previously (Levey, et al., 1991); hM1 and hM4 cDNAs were purchased from Missouri S&T cDNA Resource; rM4 cDNA was provided by T. I. Bonner (National Institutes of Health, Bethesda, Md.). rM2 and rM3 were cloned from a rat brain cDNA library and sequence verified. hM1, rM2, rM3, hM4, and rM4 cDNAs were used to stably transfect CHO-K1 cells purchased from the American Type Culture Collection using Lipofectamine-2000. To make stable rM2, hM2, rM3, hM4, and rM4 cell lines for use in calcium mobilization assays, these cells also were stably transfected with a chimeric G-protein (Gqi5) (provided by B. R. Conklin, University of California, San Francisco) using Lipofectamine 2000. rM1, hM1, rM3, hM3, rM5, and hM5 cells were grown in Ham's F-12 medium containing 10% heat-inactivated fetal bovine serum (FBS), 20 mM HEPES, and 50 μg/mL G418 sulfate. rM2-Gqi5, hM2-Gqi5, and hM4-Gqi5 cells were grown in the same medium also containing 500 μg/mL Hygromycin B. Stable rM4-Gqi5 cells were grown in DMEM containing 10% heat-inactivated FBS, 20 mM HEPES, 400 μg/mL G418 sulfate, and […].
For high throughput measurement of antagonist inhibited increases in intracellular calcium, CHO-K1 cells stably expressing muscarinic receptors were plated in growth medium lacking G418 and hygromycin at 15,000 cells/20 μL/well in Greiner 384-well black-walled, tissue culture (TC)-treated, clear-bottom plates (VWR). Cells were incubated overnight at 37° C. and 5% CO2. The next day, cells were washed using an ELX 405 (BioTek) with four washes (80 μL) of assay buffer then aspirated to 20 μL. Next, 20 μL of 16 μM Fluo-4/acetoxymethyl ester (Invitrogen, Carlsbad, Calif.) prepared as a 2.3 mM stock in DMSO and mixed in a 1:1 ratio with 10% (w/v) Pluronic F-127 and diluted in assay buffer was added to the wells and the cell plates were incubated for 50 min at 37° C. and 5% CO2. Dye was removed by washing with the ELX 405 (four 80 μL washes of assay buffer) then aspirated to 20 μL. Compound master plates were formatted in an 11 point CRC format (1:3 dilutions) in 100% DMSO with a starting concentration of 10 mM using the BRAVO liquid handler (Agilent). Test compound CRCs were then transferred to daughter plates (240 nL) using the Echo acoustic plate reformatter (Labcyte, Sunnyvale, Calif.) and then diluted into assay buffer (40 μL) to a 2× stock using a Thermo Fisher Combi (Thermo Fisher Scientific, Waltham, Mass.).
Calcium flux was measured using the Functional Drug Screening System (FDSS) 6000 (Hamamatsu Corporation, Tokyo, Japan) as an increase in the fluorescent static ratio. Compounds were applied to cells (20 μL, 2×) using the automated system of the FDSS 6000 at 4 s into the 300 s protocol and the data were collected at 1 Hz. At 144 s into the 300 s protocol, 10 μL of an EC20 concentration of the muscarinic receptor agonist acetylcholine was added (5×), followed by the addition of 12 μL an EC80 concentration of acetylcholine at the 230 s time point (5×). Agonist activity was analyzed as a concentration-dependent increase in calcium mobilization upon compound addition. Positive allosteric modulator activity was analyzed as a concentration-dependent increase in the EC20 acetylcholine response. Antagonist activity was analyzed as a concentration-dependent decrease in the EC80 acetylcholine response. Concentration-response curves were generated using a four-parameter logistical equation in XLfit curve fitting software (IDBS, Bridgewater, N.J.) for Excel (Microsoft, Redmond, Wash.) or Prism (GraphPad Software, Inc., San Diego, Calif.).
The calcium mobilization assay was used to determine “potency”.

[1] = dash = baseline or about zero remaining activity (table footnote)
[2] = activity remaining at top dose of 30 μM test compound, as percentage of the response to an approx. EC80 concentration of ACh

Structure (SMILES)	IC50	Remaining Activity (%) [1]	Remaining Activity (%) [2]
O=C(C1CN(S(=O)(=O)c2cccc3nonc23)C1)N1CC2CN(c3ccncc3)CC2C1 (stereo not shown) [B56]	960 nM	— (Unless otherwise indicated with a numerical value, the percent remaining activity is baseline or about zero, i.e. as indicated by “—”)	
O=C(C1CN(S(=O)(=O)c2cccc3cnccc23)C1)N1CCN(c2ccnc(Cl)c2)CC1 [B2]	48 nM	— (Unless otherwise indicated with a numerical value, the percent remaining activity is baseline or about zero, i.e. as indicated by “—”)	
O=C(C1CN(S(=O)(=O)c2ccncc2)C1)N1CCN(c2ccncc2)CC1 [B67]	> 10000 nM		≧80%
Cn1ccnc1N1CCN(C(=O)C2CN(S(=O)(=O)c3cccc4nonc34)C2)CC1 [B62]	> 10000 nM		≧80%
O=C(C1CN(S(=O)(=O)c2ccc(Cl)cn2)C1)N1CCN(c2ccncc2)CC1 [B42]	> 10000 nM		34%
CC(C)S(=O)(=O)N1CC(C(=O)N2CCN(c3ccncc3)CC2)C1 [B44]	> 10000 nM		59%
O=C(C1CN(S(=O)(=O)c2ccc(OC(F)F)cc2)C1)N1CCN(c2ccncc2)CC1 [B63]	> 10000 nM		≧80%
Cc1cc2c(S(=O)(=O)N3CC(C(=O)N4CC5CN(c6ccncc6)CC5C4)C3)cccc2cn1 (stereo not shown) [B60]		— (Unless otherwise indicated with a numerical value, the percent remaining activity is baseline or about zero, i.e. as indicated by “—”)	
CN1CCOc2cc(S(=O)(=O)N3CC(C(=O)N4CCN(c5ccncc5)CC4)C3)cnc21 [B73]	> 10000 nM		≧80%
O=C(C1CN(S(=O)(=O)c2ccc3ncccc3c2)C1)N1CCN(c2ccncc2)CC1 [B15]		— (Unless otherwise indicated with a numerical value, the percent remaining activity is baseline or about zero, i.e. as indicated by “—”)	
O=C(C1CN(S(=O)(=O)c2cccc3cnccc23)C1)N1CC2CN(c3ccccn3)CC2C1 (stereo not shown) [B4]	87 nM	— (Unless otherwise indicated with a numerical value, the percent remaining activity is baseline or about zero, i.e. as indicated by “—”)	
O=C(C1CN(S(=O)(=O)c2cccc3nonc23)C1)N1CCN(c2ccc(Br)cn2)CC1 [B11]	350 nM	— (Unless otherwise indicated with a numerical value, the percent remaining activity is baseline or about zero, i.e. as indicated by “—”)	
Cc1noc(C)c1S(=O)(=O)N1CC(C(=O)N2CCN(c3ccncc3)CC2)C1 [B25]	1900 nM	— (Unless otherwise indicated with a numerical value, the percent remaining activity is baseline or about zero, i.e. as indicated by “—”)	
O=C(C1CN(S(=O)(=O)c2cccc(F)c2)C1)N1CC2CN(c3ccncc3)CC2C1 (stereo not shown) [B59]	2100 nM	— (Unless otherwise indicated with a numerical value, the percent remaining activity is baseline or about zero, i.e. as indicated by “—”)	
O=C1CCc2cc(S(=O)(=O)N3CC(C(=O)N4CCN(c5ccncc5)CC4)C3)ccc2N1 [B79]	> 10000 nM		≧80%
O=C(C1CN(S(=O)(=O)c2cccc3c(Cl)nccc23)C1)N1CCN(c2ccncc2)CC1 [B17]	640 nM	— (Unless otherwise indicated with a numerical value, the percent remaining activity is baseline or about zero, i.e. as indicated by “—”)	
Cn1nccc1-c1cccc(S(=O)(=O)N2CC(C(=O)N3CCN(c4ccncc4)CC3)C2)c1 [B65]	> 10000 nM		≧80%
Cc1cc(N2CCN(C(=O)C3CN(S(=O)(=O)c4cccc5cnccc45)C3)CC2)ccn1 [B6]	120 nM	— (Unless otherwise indicated with a numerical value, the percent remaining activity is baseline or about zero, i.e. as indicated by “—”)	
